Here are results for two molecules from US4260758A, “Pyrazolo (3,4-d) pyrimidines and methods of making” (Burroughs Wellcome Co., priority 1979, dated 1981).

SMILES strings stand for the structures.

The test has as its system Eimeria Tenella (Weybridge) sporozites. As to the kind of experiment: in vitro anti-coccidial activity, primary explant cultures of chick embryo liver cells with sporozites. It counts as cell-based. The following applies: with sulphaquinoxaline 0.01 μg/ml and diaveridine 0.031 μg/ml. The protocol: The anti-coccidial activity of compounds of formula (III) alone and in combination with a mixture of diaveridine (DV) and sulphaquinoxaline (SQX) in vitro was tested according to the following procedure.
Using standard test procedures employing primary explant cultures of chick embryo liver cells and a suspension of Eimeria Tenella (Weybridge) sporozites the activity of the compounds was determined at various concentrations. In the above test, each test compound was used either alone or in combination with sulphaquinoxaline (0.01 μg/ml) and diaveridine (0.031 μg/ml). It should be noted that the minimum active anti-coccidial amounts of sulphaquinoxaline and diaveridine are 0.024 μg/ml and 0.098 μg/ml respectively.
The following results were obtained wherein activity is expressed as follows: […]

As for `COC(=O)C1=NN(C)c2nc(N)[nH]c(=O)c2C(c2cc(OC)c(OC)c(OC)c2)=C1` [Example 6, 8-Amino-3-carbomethoxy-1-methyl-5-(3,4,5-trimethoxyphenyl)-1H-pyrimido{4,5-c}-1,2-diazepin-6(7H)-one], the “Activity, with DV/SQX” value (100 μg/ml) is given as 5 (No parasite development).

As for `CCOC(=O)C1=NN(C)c2nc(N)[nH]c(=O)c2C(c2ccc(OC)cc2OC)=C1` [Example 7, 8-Amino-3-carbethoxy-1-methyl-5-(2,4-dimethoxyphenyl)-1H-pyrimido{4,5-c}-1,2-diazepin-6(7H)-one], the “Activity, with DV/SQX” value is, setting by setting: (25 μg/ml) 5 (No parasite development); (100 μg/ml) 5 (No parasite development).
